Assay results taken from patent US12629370B2, “Treatment of prostate cancer” (Sumitomo Pharma Co., Ltd., priority 2016, dated 2026).
Several values for one entry are separate records, joined by “and”; a condition that tells them apart may be missing. Identical values can stand only once.

Key:
serum LH = test: Example 7: serum LH in healthy men; type: in vivo, human
Experimental: (§1) FSH, DHT, and insulin-like growth factor 1 (IGF-1; Parts 3 and 4 only) were measured in a subset of samples. Serum testosterone was assayed using a conventional immunoassay for screening (LLOQ=0.4 nmol/L). A validated LC/MS/MS method, with an LLOQ of 0.173 nmol/L and a ULOQ of 10.425 nmol/L, was used for all subsequent baseline (i.e., the subject's serum hormone levels prior to treatment commencing) and postdose measurements.

serum FSH = test: Example 7: serum FSH in healthy men; type: in vivo, human
Experimental: as §1

serum testosterone = test: Example 8: serum testosterone in men with advanced prostate cancer, versus leuprolide acetate; type: in vivo, human
From the text: Eligible men were aged ≥18 years with a histologically confirmed diagnosis of prostate adenocarcinoma, and were candidates for ADT for the management of hormone-sensitive prostate cancer with one of the following clinical disease states: advanced localized disease not suitable for primary surgical or radiation therapy; evidence of PSA biochemical or clinical relapse following primary surgery or radiation therapy of curative intent; or newly diagnosed metastatic disease that was asymptomatic and without visceral involvement. […] Patients with advanced, localized MON1 or M1 disease with clinically significant symptoms or visceral involvement, who required immediate GnRH therapy, chemotherapy, or radiation therapy were not eligible for the trial.
Serum testosterone levels were measured at each visit.

[1] = test system: patients with advanced prostate cancer; test: Example 8: quality of life, Aging Male Survey (AMS); type: in vivo, human; details: for AMS total score, mean: Baseline
Experimental: Quality of life (QoL) was assessed throughout the study and the follow-up period. The 25-item Prostate Cancer Module of the European Organization for Research and Treatment of Cancer Quality of Life Questionnaire (EORTC QLQ-PR25), Aging Male Survey (AMS), and core 30-item EORTC Quality of Life Questionnaire (EORTC QLQ-C30) were completed at screening, day 1 of weeks 5, 13, 25, 37, and 49, and, if applicable, at the follow-up visits.

LH = test: Example 9: LH; type: in vivo, human
Experimental: Eligible male patients were aged ≥18 years with a histologically confirmed diagnosis of localized, intermediate-risk prostate cancer, for whom 6-month neoadjuvant and adjuvant androgen deprivation therapy (ADT) to external beam radiation therapy (EBRT) was indicated. The criteria for establishing intermediate-risk prostate cancer included the presence of one of the following, without any high-risk feature: T2b-T2c disease, Gleason score 7, or prostate-specific antigen (PSA) 10-20 ng/mL. […] Based on investigator discretion and clinical assessment of the patient's overall medical and disease status, participation was allowed for older patients with high-risk disease (e.g., based on Gleason score or tumor status) who were deemed likely to benefit from 6 months of neoadjuvant/adjuvant ADT.
Both treatment arms received treatment for 24 weeks. […] EBRT began no later than day 1, week 17.
Patients were evaluated every 4 weeks during the treatment period (including day 1, week 25), at end of treatment (defined as week 29), during follow-up (week 33), and at end of study (EOS).
Samples for testosterone, luteinizing hormone (LH), FSH, and PSA concentrations were taken at screening, on day 1 of the first week (additionally days 2 and 4 for testosterone and LH), and on day 1 of weeks 2, 3, 5, 9, 13, 17, 21, 25, 29, 33, and 37 thereafter.

rats = details: rat, in vivo
FIG. 23 = test: FIG. 23
From the text: Table printed on a drawing sheet, FIG. 23
First reader's note: The rows 'Plasma' and 'Urine' are section heads (matrix); the sheet explains neither the footnote marks a and b nor the values in brackets.

[2] = Compound 1 80 or 120 mg QD after 320 mg load
[3] = Compound 1 Total, End of Treatment
[4] = Compound 1 Total, Week 49, Day 1

## CONC(=O)Nc1ccc(-c2sc3c(c2CN(C)C)c(=O)n(-c2ccc(OC)nn2)c(=O)n3Cc2c(F)cccc2F)cc1 [Compound 1, N-(4-(1-(2,6-difluorobenzyl)-5-((dimethylamino)methyl)-3-(6-methoxy-3-pyridazinyl)-2,4-dioxo-1,2,3,4-tetrahydrothieno[2,3-d]pyrimidin-6-yl)phenyl)-N′-methoxyurea]
Serum LH; Part 2, 80 mg, baseline 4.57 IU/L
  mean serum LH at end of 16 days: 0.33 IU/L
Serum LH; Part 2, 180 mg, baseline 3.90 IU/L
  mean serum LH at end of 16 days: 0.23 IU/L
Serum FSH; Part 1 single doses 80-360 mg
  time postdose at which mean serum FSH began to decrease: 2 h
  time postdose of lowest mean serum FSH: 48 h
Serum FSH; Part 2, 80 mg, baseline 6.07 IU/L
  mean serum FSH at end of 16 days: 0.67 IU/L
Serum FSH; Part 2, 180 mg, baseline 3.88 IU/L
  mean serum FSH at end of 16 days: 0.33 IU/L
Serum testosterone; 80 mg QD, Baseline
  Testosterone Mean (Std Dev): 13.755 (4,7256) nmol/L
  Testosterone Median: 12.700 nmol/L
Serum testosterone; 80 mg QD, End of Study
  Testosterone Mean (Std Dev): 6.933 (6.4298) nmol/L
  Testosterone Median: 5.340 nmol/L
Serum testosterone; 80 mg QD, End of Treatment
  Testosterone Mean (Std Dev): 7.211 (9.2178) nmol/L
  Testosterone Median: 3.125 nmol/L
Serum testosterone; 80 mg QD, Follow-Up
  Testosterone Mean (Std Dev): 11.004 (5.9971) nmol/L
  Testosterone Median: 13.185 nmol/L
Serum testosterone; 80 mg QD, Week 49, Day 1
  Testosterone Median: 0.380 nmol/L
Serum testosterone; 120 mg QD, Baseline
  Testosterone Median: 14.350 nmol/L
Serum testosterone; 120 mg QD, EOS (12 weeks after stopping)
  Median testosterone: 322.8 ng/dL
Serum testosterone; 120 mg QD, EOT (4 weeks after end of treatment)
  Median testosterone: 72.9 ng/dL
Serum testosterone; 120 mg QD, End of Study
  Testosterone Mean (Std Dev): 9.565 (7.6479) nmol/L
  Testosterone Median: 11.210 nmol/L
Serum testosterone; 120 mg QD, End of Treatment
  Testosterone Mean (Std Dev): 3.592 (3.7809) nmol/L
  Testosterone Median: 2.530 nmol/L
Serum testosterone; 120 mg QD, Follow-Up
  Testosterone Median: 11.450 nmol/L
Serum testosterone; 120 mg QD, Follow-up visit (8 weeks after stopping)
  Median testosterone: 329.8 ng/dL
Serum testosterone; 120 mg QD, Week 49, Day 1
  Testosterone Mean (Std Dev): 0.443 (0.2745) nmol/L
  Testosterone Median: 0.365 nmol/L
Serum testosterone; 4 weeks after the end of treatment
  serum testosterone after stopping treatment: > 50 ng/dL
Serum testosterone; [2]
  visit by which average serum testosterone decreased below medical castration threshold of 50 ng/dL: Day 4
  visit by which average serum testosterone decreased below profound castration threshold of 20 ng/dL: Week 5 Day 1
Serum testosterone; Compound 1 Total, Baseline
  Testosterone Mean (Std Dev): 14.4 nmol/L
  Testosterone Median: 13.600 nmol/L
Serum testosterone; Compound 1 Total, End of Study
  Testosterone Mean (Std Dev): 8.249 (7.0702) nmol/L
  Testosterone Median: 7.425 nmol/L
Serum testosterone; [3]
  Testosterone Mean (Std Dev): 5.039 (6.6432) nmol/L
  Testosterone Median: 2.530 nmol/L
Serum testosterone; Compound 1 Total, Follow-Up
  Testosterone Mean (Std Dev): 12.094 (5.9829) nmol/L
  Testosterone Median: 11.970 nmol/L
Serum testosterone; [4]
  Testosterone Mean (Std Dev): 0.487 (0.3867) nmol/L
  Testosterone Median: 0.380 nmol/L
Serum testosterone; Compound 1 groups, weeks 5-49
  median serum testosterone: < 20 ng/dL
Serum testosterone; in vivo
  testosterone surge or tumor flare after treatment initiation: No serum testosterone surge or resultant tumor flare occurred
[1]; 80 mg QD
  AMS total score, mean: 29.8
[1]; 80 mg QD, EOS
  AMS total score after treatment, mean percent change from baseline: 21.9%
[1]; 80 mg QD, EOT
  AMS total score after treatment, mean percent change from baseline: 30.5%
[1]; 80 mg QD, Follow-up
  AMS total score after treatment, mean percent change from baseline: 31.8%
[1]; 80 mg QD, W5, D1
  AMS total score, mean percent change from baseline: 3.9%
[1]; 80 mg QD, W13, D1
  AMS total score, mean percent change from baseline: 14.8%
[1]; 80 mg QD, W25, D1
  AMS total score, mean percent change from baseline: 20.3%
[1]; 80 mg QD, W49, D1
  AMS total score, mean percent change from baseline: 30.1%
[1]; 120 mg QD
  AMS total score, mean: 29.9
[1]; 120 mg QD, EOS
  AMS total score after treatment, mean percent change from baseline: 25.3%
[1]; 120 mg QD, Follow-up
  AMS total score after treatment, mean percent change from baseline: 25.2%
[1]; 120 mg QD, W5, D1
  AMS total score, mean percent change from baseline: 10.9%
[1]; 120 mg QD, W13, D1
  AMS total score, mean percent change from baseline: 17.3%
[1]; 120 mg QD, W25, D1
  AMS total score, mean percent change from baseline: 20.4%
[1]; 120 mg QD, W37, D1
  AMS total score, mean percent change from baseline: 24.5%
[1]; 120 mg QD, W49, D1
  AMS total score, mean percent change from baseline: 24.4%
[1]; after discontinuation of 48 weeks of treatment
  QOL (AMS, EORTC QLQ-PR25 sexual activity) during 12 week recovery: appeared to improve more in the Compound 1 group than the leuprorelin group
LH; Baseline
  Median LH: 4.7 mlU/mL
LH; Week 24
  Median LH: 0.1 mlU/mL
LH; Week 25, Day 1
  mean LH level: 0.325 IU/L
LH; Week 28/EOT visit
  Median LH: 3.1 mlU/mL
LH; Week 32/follow-up
  Median LH: 8.3 mlU/mL
LH; Week 36/EOS
  Median LH: 10.7 mlU/mL
rats
  adverse effect observed in non-clinical toxicity studies: phospholipidosis
FIG. 20
  CLr (L/h): 7.57 (13.4) L/h and 8.11 (12.7) L/h and 9.24 (10.0) L/h and 8.64 (10.8) L/h
  Fe (%): 2.95 (41.5) % and 2.05 (33.4) % and 1.46 (38.7) %
  t1/2(h): 20.8 (5.2) h and 21.3 (20.0) h and 21.7 (8.9) h
FIG. 23
  CLr (L/h): 6.92 (29.5) L/h and 5.51 (26.7) L/h and 6.42 (25.0) L/h and 7.66 (17.4) L/h and 7.43 (16.2) L/h
  Fe (%): 1.44 (31.8) % and 1.35 (40.0) % and 1.76 (38.6) % and 1.89 (20.2) % and 2.88 (45.6) %
  t1/2(h): 50.6 (20.2) h and 49.4 (30.6) h and 36.5 (17.4) h
